# Measurements from patent publication US8785459B2, “Quinazoline compounds as kinase inhibitors” (Development Center for Biotechnology, priority 2011, dated 2014).
# How the values were obtained:
# Assay type in all cases: biochemical
# B-Raf = B-Raf (Homo sapiens (Human), UniProt P15056); test: Raf kinase assay (B-Raf), [33P] incorporation into MEK1(K97R); conditions: for inhibition at 1 µM: 1.0 μM compound, read-out: B-Raf inhibition at 1.0 μM
# Procedure: (§1) A. Raf Kinase Assays (B-Raf, B-raf (V600E), and C-Raf)
# (§2) Inhibition of kinase activity by test compound disclosed herein was estimated by quantifying the amount of [^33P] incorporation of substrate in the presence of test compound. Standard assay conditions were 2 ng of recombinant C-Raf or 5 ng of recombinant B-Raf or 5 ng of recombinant B-Raf (V600E) kinase (Upstate Biotechnology) with 500 ng MEK1(K97R) in assay buffer {8 μM ATP, 0.5 μCi [^33P]ATP (specific activity 3000 Ci/mmol, PerkinElmer), 50 mM Tris/HCl (pH7.5), and 1 mM EGTA, 1 mM Na3VO4, 1% 2-mercaptoethanol, 0.1% Brij 35, and 0.2 mg/ml BSA} at a final volume of 25 μL. Reactions were incubated at 30° C. for 30 min and stopped by adding 3% phosphoric acid, harvested onto a 96-well GF/B UniFilter (PerkinElmer) using a unifilter harvester (PerkinElmer), and counted with a TopCount microplate scintillation counter (PerkinElmer). The IC50 values of inhibitors were determined after carrying out assays at 3-fold serially diluted concentrations of each compound in duplication. The results were analyzed using linear regression software (GraphPad Prism 4; GraphPad Software Inc.). Inhibition of B-Raf, B-raf (V600E), and C-Raf kinases by various compounds listed in Table 1 are summarized and shown in Table 3 below. IC50 value is defined as the concentration of the test compound which achieves a half-maximal inhibition of the kinase activity.
# B-Raf (V600E) = B-Raf (V600E) (Homo sapiens (Human), UniProt P15056, V600E); test: Raf kinase assay (B-Raf (V600E)), [33P] incorporation into MEK1(K97R)
# Procedure: as §1, §2
# C-Raf = C-Raf (Homo sapiens (Human), UniProt P04049); test: Raf kinase assay (C-Raf), [33P] incorporation into MEK1(K97R)
# Procedure: as §1, §2
# Sequence of C-Raf (P04049 whole entry): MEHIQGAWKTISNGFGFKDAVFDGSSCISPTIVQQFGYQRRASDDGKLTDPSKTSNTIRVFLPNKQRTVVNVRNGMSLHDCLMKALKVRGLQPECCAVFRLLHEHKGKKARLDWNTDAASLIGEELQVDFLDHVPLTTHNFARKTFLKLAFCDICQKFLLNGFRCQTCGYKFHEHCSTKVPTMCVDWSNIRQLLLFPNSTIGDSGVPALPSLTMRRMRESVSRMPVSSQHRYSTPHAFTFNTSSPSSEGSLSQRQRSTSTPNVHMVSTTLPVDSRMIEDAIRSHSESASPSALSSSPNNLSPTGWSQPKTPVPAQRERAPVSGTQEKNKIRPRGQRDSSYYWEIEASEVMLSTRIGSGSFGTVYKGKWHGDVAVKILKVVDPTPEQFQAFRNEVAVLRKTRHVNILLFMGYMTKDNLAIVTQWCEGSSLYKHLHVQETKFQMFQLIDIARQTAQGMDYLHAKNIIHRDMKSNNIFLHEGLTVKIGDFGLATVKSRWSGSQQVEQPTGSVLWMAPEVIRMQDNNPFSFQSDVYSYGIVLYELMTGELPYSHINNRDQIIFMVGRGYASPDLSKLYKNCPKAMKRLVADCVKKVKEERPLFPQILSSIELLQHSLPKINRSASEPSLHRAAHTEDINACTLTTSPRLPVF
# Sequence of B-Raf (P15056 whole entry): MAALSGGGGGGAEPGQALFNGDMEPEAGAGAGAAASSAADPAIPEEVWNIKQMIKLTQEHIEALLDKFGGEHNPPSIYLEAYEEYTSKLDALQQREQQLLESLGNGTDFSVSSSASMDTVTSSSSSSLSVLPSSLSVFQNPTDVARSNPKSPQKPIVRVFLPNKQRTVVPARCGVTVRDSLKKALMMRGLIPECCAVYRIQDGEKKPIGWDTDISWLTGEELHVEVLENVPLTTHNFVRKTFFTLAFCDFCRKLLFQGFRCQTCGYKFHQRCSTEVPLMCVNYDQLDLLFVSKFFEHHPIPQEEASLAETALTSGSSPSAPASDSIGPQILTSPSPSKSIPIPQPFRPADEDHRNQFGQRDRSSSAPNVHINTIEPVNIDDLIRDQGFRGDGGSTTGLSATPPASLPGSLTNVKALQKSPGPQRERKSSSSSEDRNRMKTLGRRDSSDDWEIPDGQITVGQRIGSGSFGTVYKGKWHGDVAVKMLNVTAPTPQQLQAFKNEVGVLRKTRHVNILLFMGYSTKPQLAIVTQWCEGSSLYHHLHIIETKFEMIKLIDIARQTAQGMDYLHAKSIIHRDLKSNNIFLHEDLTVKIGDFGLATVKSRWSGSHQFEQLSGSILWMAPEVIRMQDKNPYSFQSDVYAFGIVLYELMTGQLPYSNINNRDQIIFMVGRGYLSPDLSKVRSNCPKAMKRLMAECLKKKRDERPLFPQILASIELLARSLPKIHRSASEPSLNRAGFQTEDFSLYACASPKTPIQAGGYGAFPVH
# Sequence of B-Raf (V600E) (P15056 whole entry V600E): as the sequence (P15056 whole entry) above, with V600E counted along it
Compound,IC50 (B-Raf) [nM],inhibition at 1 µM (B-Raf) [%],IC50 (B-Raf (V600E)) [nM],IC50 (C-Raf) [nM]
"COc1ccc(-c2ccc3ncnc(Nc4cccc5[nH]ncc45)c3c2)c(C)c1 [Compound 77, N-(1H-indazol-4-yl)-6-(4-methoxy-2-methylphenyl)quinazolin-4-amine]",698,61.7,911,2530
"COc1ccc(-c2ccc3ncnc(Nc4cccc5[nH]ncc45)c3c2)cc1C [Compound 78, N-(1H-indazol-4-yl)-6-(4-methoxy-3-methylphenyl)quinazolin-4-amine]",470,71.1,736,1860
"Fc1ccc(-c2ccc3ncnc(Nc4cccc5[nH]ncc45)c3c2)cc1Cl [Compound 79, 6-(3-chloro-4-fluorophenyl)-N-(1H-indazol-4-yl)quinazolin-4-amine]",514,69.6,557,1220
"Clc1ccc(-c2ccc3ncnc(Nc4cccc5[nH]ncc45)c3c2)cc1 [Compound 80, 6-(4-chlorophenyl)-N-(1H-indazol-4-yl)quinazolin-4-amine]",287,77.2,289,919
"Fc1cccc(-c2ccc3ncnc(Nc4cccc5[nH]ncc45)c3c2)c1 [Compound 81, 6-(3-fluorophenyl)-N-(1H-indazol-4-yl)quinazolin-4-amine]",244,79.1,280,588
"COc1cc(-c2ccc3ncnc(Nc4cccc5[nH]nnc45)c3c2)ccc1O [Compound 82, 4-(4-(1H-benzo[d][1,2,3]triazol-4-ylamino)quinazolin-6-yl)-2-methoxyphenol]",668,58,702,1270
"c1ccc(-c2ccc3ncnc(Nc4cccc5[nH]ncc45)c3c2)cc1 [Compound 86, N-(1H-indazol-4-yl)-6-phenylquinazolin-4-amine]",201,77.8,287,597
"FC(F)(F)c1cccc(-c2ccc3ncnc(Nc4cccc5[nH]ncc45)c3c2)c1 [Compound 87, N-(1H-indazol-4-yl)-6-(3-(trifluoromethyl)phenyl)quinazolin-4-amine]",356,71.3,371,844
"N#Cc1ccc(-c2ccc3ncnc(Nc4cccc5[nH]ncc45)c3c2)cc1 [Compound 88, 4-(4-(1H-indazol-4-ylamino)quinazolin-6-yl)benzonitrile]",249,77.4,299,630
"COc1ccc(-c2ccc3ncnc(Nc4cccc5[nH]ncc45)c3c2)cc1OC [Compound 89, 6-(3,4-dimethoxyphenyl)-N-(1H-indazol-4-yl)quinazolin-4-amine]",205,80.4,259,869
"CN(C)c1ccc(-c2ccc3ncnc(Nc4cccc5[nH]ncc45)c3c2)cc1 [Compound 90, 6-(4-(dimethylamino)phenyl)-N-(1H-indazol-4-yl)quinazolin-4-amine]",762,56.1,1010,4080
"Fc1ccccc1-c1ccc2ncnc(Nc3cccc4[nH]ncc34)c2c1 [Compound 91, 6-(2-fluorophenyl)-N-(1H-indazol-4-yl)quinazolin-4-amine]",155,85.3,255,709
"O=[N+]([O-])c1cccc(-c2ccc3ncnc(Nc4cccc5[nH]ncc45)c3c2)c1 [Compound 92, N-(1H-indazol-4-yl)-6-(3-nitrophenyl)quinazolin-4-amine]",428,66.3,535,1610
"CCOc1ccc(-c2ccc3ncnc(Nc4cccc5[nH]ncc45)c3c2)cc1 [Compound 93, 6-(4-ethoxyphenyl)-N-(1H-indazol-4-yl)quinazolin-4-amine]",347,76.6,355,1560
"OCc1cccc(-c2ccc3ncnc(Nc4cccc5[nH]ncc45)c3c2)c1 [Compound 94, (3-(4-(1H-indazol-4-ylamino)quinazolin-6-yl)phenyl)methanol]",430,76.2,551,1410
"CS(=O)(=O)Nc1cccc(-c2ccc3ncnc(Nc4cccc5[nH]ncc45)c3c2)c1 [Compound 95, N-(3-(4-(1H-indazol-4-ylamino)quinazolin-6-yl)phenyl)methanesulfonamide]",430,70.9,534,1290
"COc1cc(-c2ccc3ncnc(Nc4cccc5c4cnn5C)c3c2)ccc1O [Compound 99, 2-methoxy-4-(4-(1-methyl-1H-indazol-4-ylamino)quinazolin-6-yl)phenol]",358,61.1,451,3910
"Cc1ccc(F)cc1-c1ccc2ncnc(Nc3cccc4[nH]ncc34)c2c1 [Compound 104, 6-(5-fluoro-2-methylphenyl)-N-(1H-indazol-4-yl)quinazolin-4-amine]",235,81.1,357,778
"COc1cccc(-c2ccc3ncnc(Nc4cccc5[nH]ncc45)c3c2)c1OC [Compound 105, 6-(2,3-dimethoxyphenyl)-N-(1H-indazol-4-yl)quinazolin-4-amine]",380,72.6,515,2130
"CN(C)c1ccc(-c2ccc3ncnc(Nc4cccc(O)c4)c3c2)cc1 [Compound 106, 3-(6-(4-(dimethylamino)phenyl)quinazolin-4-ylamino)phenol]",272,78.7,292,3190
"NS(=O)(=O)c1ccc(-c2ccc3ncnc(Nc4cccc5[nH]ncc45)c3c2)cc1 [Compound 107, 4-(4-(1H-indazol-4-ylamino)quinazolin-6-yl)benzenesulfonamide]",345,75.4,328,677
"CCS(=O)(=O)Nc1cccc(-c2ccc3ncnc(Nc4cccc5[nH]ncc45)c3c2)c1 [Compound 108, N-(3-(4-(1H-indazol-4-ylamino)quinazolin-6-yl)phenyl)ethanesulfonamide]",221,81.1,244,680
"CS(=O)(=O)c1ccc(-c2ccc3ncnc(Nc4cccc5[nH]ncc45)c3c2)cc1 [Compound 110, N-(1H-indazol-4-yl)-6-(4-(methylsulfonyl)phenyl)quinazolin-4-amine]",248,81.8,273,650
"COc1ccc(-c2ccc3nccc(Nc4cccc5[nH]ncc45)c3c2)cc1F [Compound 112, 6-(3-fluoro-4-methoxyphenyl)-N-(1H-indazol-4-yl)quinolin-4-amine]",182,80.2,207,619
"COc1ccc(-c2ccc3nccc(Nc4cccc5[nH]ncc45)c3c2)cc1OC [Compound 113, 6-(3,4-dimethoxyphenyl)-N-(1H-indazol-4-yl)quinolin-4-amine]",263,75.5,291,972
